Assay results published in patent publication US8791148B2, “Substituted benzimidazolone derivatives, medicaments comprising them and their use” (AbbVie Deutschland GmbH & Co. KG, priority 2006, dated 2014).
pKi: −log10 of the molar value.

Target: T1, human vasopressin V1b receptor (Homo sapiens, UniProt P47901)
T1 construct: expressed in transfected cells; host or cells: CHO-K1 (cell line hV1b-3H2_CHO), membrane preparation
T1 sequence (P47901 1-424): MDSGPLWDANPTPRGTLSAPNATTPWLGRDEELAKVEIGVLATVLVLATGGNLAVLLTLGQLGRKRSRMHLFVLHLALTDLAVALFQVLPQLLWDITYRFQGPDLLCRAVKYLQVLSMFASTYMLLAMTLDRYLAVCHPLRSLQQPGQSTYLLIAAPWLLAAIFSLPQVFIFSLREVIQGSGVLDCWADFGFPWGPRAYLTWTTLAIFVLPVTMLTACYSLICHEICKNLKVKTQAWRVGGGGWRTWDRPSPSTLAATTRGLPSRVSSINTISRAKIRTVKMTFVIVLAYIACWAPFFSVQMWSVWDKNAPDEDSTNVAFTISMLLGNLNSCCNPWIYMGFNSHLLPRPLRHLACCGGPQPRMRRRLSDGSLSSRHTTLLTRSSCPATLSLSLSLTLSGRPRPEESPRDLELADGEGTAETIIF
Experiment: Vasopressin V1b receptor binding assay
Settings: membranes from CHO-K1 cells with stably expressed human V1b receptors; displacement of 1.5 nM 3H-AVP; read-out: V1b receptor affinity (affinity constant Ki)
Summary of the method: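 Ki values come from nonlinear regression of triplicate scintillation counts after filtration. Test compound (2% DMSO in the mixture) and radioligand were incubated 60 min at room temperature with human V1b membranes in pH 7.4 Tris buffer with 10 mM MgCl2 and 0.1% BSA. Nonspecific binding was set with 1 uM AVP.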

Structure (SMILES): COc1ccc(S(=O)(=O)n2c(=O)n(C(C(=O)N3CCC[C@H](NC4CCN(C(C)C)CC4)C3)c3ccccc3)c3cc(C#N)ccc32)cc1 (stereo partly drawn) [Example 247, 3-{2-[(S)-3-(1-Isopropyl-piperidin-4-ylamino)-piperidin-1-yl]-2-oxo-1-phenylethyl}-1-(4-methoxy-benzenesulfonyl)-2-oxo-2,3-dihydro-1H-benzoimidazole-5-carbonitrile]
- pKi: > 7.00

Structure (SMILES): COc1ccc(S(=O)(=O)n2c(=O)n(C(C(=O)N3CCC[C@@H](NC4CCN(C)CC4)C3)c3ccccc3)c3cc(C#N)ccc32)cc1 (stereo partly drawn) [Example 248, 1-(4-Methoxy-benzenesulfonyl)-3-{2-[(R)-3-(1-methyl-piperidin-4-ylamino)-piperidin-1-yl]-2-oxo-1-phenyl-ethyl}-2-oxo-2,3-dihydro-1H-benzoimidazole-5-carbonitrile]
- pKi: 6.30 to 7.00

Structure (SMILES): COc1ccc(S(=O)(=O)n2c(=O)n(C(C(=O)N3CCC[C@@H](NC4CCN(C(C)C)CC4)C3)c3ccccc3)c3cc(C#N)ccc32)cc1 (stereo partly drawn) [Example 249, 3-{2-[(R)-3-(1-Isopropyl-piperidin-4-ylamino)-piperidin-1-yl]-2-oxo-1-phenylethyl}-1-(4-methoxy-benzenesulfonyl)-2-oxo-2,3-dihydro-1H-benzoimidazole-5-carbonitrile]
- pKi: > 7.00

Structure (SMILES): COc1ccc(S(=O)(=O)n2c(=O)n(C(C(=O)N3CC[C@H](NC(=O)C4CCN(C)CC4)C3)c3ccccc3)c3cc(C#N)ccc32)cc1 (stereo partly drawn) [Example 252, 1-Methyl-piperidine-4-carboxylic acid ((S)-1-{2-[6-cyano-3-(4-methoxybenzenesulfonyl)-2-oxo-2,3-dihydro-benzoimidazol-1-yl]-2-phenyl-acetyl}-pyrrolidin-3-yl)-amide; compound with trifluoroacetic acid]
- pKi: 6.30 to 7.00

Structure (SMILES): COc1ccc(S(=O)(=O)n2c(=O)n(C(C(=O)N3CC[C@H](Nc4ccncc4)C3)c3ccccc3)c3cc(C#N)ccc32)cc1 (stereo partly drawn) [Example 253, 1-(4-Methoxy-benzenesulfonyl)-2-oxo-3-{2-oxo-1-phenyl-2-[(S)-3-(pyridine-4-ylamino)-pyrrolidin-1-yl]-ethyl}-2,3-dihydro-1H-benzoimidazole-5-carbonitrile; compound with trifluoroacetic acid]
- pKi: > 7.00

Structure (SMILES): COc1ccc(S(=O)(=O)n2c(=O)n(C(C(=O)N3CC[C@H](Nc4ccnc(C)c4)C3)c3ccccc3)c3cc(C#N)ccc32)cc1 (stereo partly drawn) [Example 254, 1-(4-Methoxy-benzenesulfonyl)-3-{2-[(S)-3-(2-methyl-pyridine-4-ylamino)-pyrrolidin-1-yl]-2-oxo-1-phenyl-ethyl}-2-oxo-2,3-dihydro-1H-benzoimidazole-5-carbonitrile; compound with trifluoroacetic acid]
- pKi: 6.30 to 7.00

Structure (SMILES): COc1ccc(S(=O)(=O)n2c(=O)n(C(C(=O)N3CC[C@H](CNC4CCN(C)CC4)C3)c3ccccc3)c3cc(C#N)ccc32)cc1 (stereo partly drawn) [Example 255, 1-(4-Methoxy-benzenesulfonyl)-3-(2-{(R)-3-[(1-methyl-piperidin-4-ylamino)-methyl]-pyrrolidin-1-yl}-2-oxo-1-phenyl-ethyl)-2-oxo-2,3-dihydro-1H-benzoimidazole-5-carbonitrile; compound with trifluoroacetic acid]
- pKi: > 7.00

Structure (SMILES): COc1ccc(S(=O)(=O)n2c(=O)n(C(C(=O)N3CC[C@H](CN(C)C4CCN(C)CC4)C3)c3ccccc3)c3cc(C#N)ccc32)cc1 (stereo partly drawn) [Example 256, 1-(4-Methoxy-benzenesulfonyl)-3-[2-((R)-3-{[methyl-(1-methyl-piperidin-4-yl)-amino]-methyl}-pyrrolidin-1-yl)-2-oxo-1-phenyl-ethyl]-2-oxo-2,3-dihydro-1H-benzoimidazole-5-carbonitrile; compound with trifluoroacetic acid]
- pKi: > 7.00
